Assay results as given in patent publication US12643899B2, “Antiviral agents, uses thereof and methods for their preparation” (The University of British Columbia, priority 2020, dated 2026).

What was measured:
ZIKV = assay: NS1 and dsRNA in ZIKV-infected brain organoids; assay type: cell-based, Zika virus; details: 10 μM, 69 hours, MOI 1
Protocol: FIG. 17 is a schematic showing the general method 20 used in Example 6. Referring to FIG. 17, following growth of the brain organoids in STEMdiff™ media 22 (4 organoids/well), the media was aspirated 24. Then, 500 μL ZIKV at the desired MOI in fresh media was added 26 and the brain organoids incubated at 37° C. for 3 hours with gentle shaking 28. The brain organoids were then washed with 2×1 mL PBS 30, and fresh media and CA or cladoniamide C (CC) added to the desired concentration 32 prior to incubation for the desired time at 37° C. 34. The supernatant was collected and frozen at −86° C. 36 prior to analysis and the brain organoids transferred to an Eppendorf with paraformaldehyde for electron microscopy 38.
(§1) FIG. 18 is a plot showing the anti-ZIKV activity of cladoniamide A (incubation with 1 μM CA for 72 hours; 2 biological replicates, each with 4 organoids/well) using four brain organoid systems. There was a greater than 4-log reduction in extracellular ZIKV titer when treated with CA. […] FIGS. 20 and 21 show plots showing the anti-ZIKV activity of CA and CC (incubation with 10 μM CA or CC for 69 hours, MOI 1; 4 technical replicates as there were 4 organoids/[…]).

DENV-2, DENV-3, DENV-4 = assay: DENV-2, -3, -4 dsRNA imaging in Huh7.5.1 and U87 cells; assay type: cell-based, dengue virus; details: Huh 7.5.1 cells and U87 cells, FIG. 9
Protocol: Cultured Huh7.5.1 cells (left plots) or U87 cells (right plots) were treated with the indicated concentrations of CA (1=Mock, 2=0 M, 3=1 M, 4=5 M, 5=10 M, 6=20 µM) or PF-429242 (7=15 M) for 1 h before being washed with PBS and infected with DENV-2, DENV-3, or DENV-4 at MOI 1.0 for 48 h. Cells were labeled for viral dsRNA with […] then imaged and quantified using the Cellomics ArrayScan™ VTI.

[1] = tested on: human coronavirus 229E (HCoV-229E); assay: HCoV-229E intracellular viral dsRNA assay in Huh-7 cells; assay type: cell-based; details: Huh-7, 48 h
Protocol: An IF-based assay was used to monitor viral dsRNA in infected cells.
CA pre-treatment: Cladoniamide A was added to non-infected Huh-7 cells (3 h). Cells were washed with PBS and inoculated with human coronavirus 229E (HCoV-229E) for 3 hours, then HCoV-229E was removed and the cells were washed with PBS once more. 48 hours post-infection, the cells were fixed and the intra-cellular viral dsRNA was quantified (HCS CX5 system). CA added post-infection: Huh-7 cells were inoculated with HCoV-229E for 3 hours. Then HCoV-229E was removed and cells were washed with PBS. Cladoniamide A was added to these infected cells. 48 hours post-infection, the cells were fixed and the intra-cellular viral dsRNA was quantified (HCS CX5 system).

brain organoids = assay: CellTiter Glo 3D cell viability assay in brain organoids; assay type: cell-based; details: 1 μM
Protocol: FIG. 19 is a plot showing toxicity results for brain organoids treated with 1 μM CA.
as §1

[2] = MTS cytotoxicity assay in A549 cells; assay type: cell-based, human; details: human, A549 cells (human lung carcinoma)
Protocol: An MTS assay was performed to determine the cytotoxicity concentration 50% (CC50) of cladoniamide A (CA) in human A549 cells, a cell line from human lung carcinoma. Various concentrations of CA were added to cultured A549 cells and incubated (37° C., 5% CO2) for 48 h. Cell viability was then measured by an MTS assay kit (CellTiter 96™ Aqueous One Solution cell proliferation assay, Promega) according to the manufacturer's instructions. Curve fitting was performed in Igor Pro (WaveMetrics) using a hyperbolic fit algorithm (FIG. 1). The CC50 of CA in A549 cells was determined to be 54±5 μM. An MTS assay was also performed to determine the CC50 of CA in human U87 MG cells, a cell line from human brain. Various concentrations of CA were added to cultured U87 MG cells and incubated (37° C., 5% CO2) for 48 h. Cell viability was then measured by an MTS assay kit (CellTiter 96 Aqueous One Solution cell proliferation assay, Promega) according to the manufacturer's instructions. Curve fitting was performed in Igor Pro (WaveMetrics) using a hyperbolic fit algorithm (FIG. 2).

ZIKV replicon = ZIKV replicon luminescence assay in Huh-7.5 replicon-containing cells; assay type: cell-based, Zika virus; details: Huh-7.5 ZIKV replicon cells, 48 h
Protocol: Error bars represent SD among 3 biological replicates.
Cultured Huh-7.5.1 cells and Huh-7.5 ZIKV replicon-containing cells (Xie 2016) were treated with various concentrations of CA or putative ZIKV replication inhibitor NITD-008 (Deng 2016) for 48 h. Cells were then washed with PBS and ViviRen™ Live Cell Substrate (Promega) was added to a final concentration of 30 μM. Following incubation for 2 min at room temperature, luminescence was measured. Curve fitting was performed in Igor Pro (WaveMetrics) using a sigmoidal fit algorithm (FIG. 5).

Structure (SMILES): COc1c2n(c3ccccc13)[C@]1(O)C(=O)N(C)C(=O)[C@]1(O)c1c-2[nH]c2ccc(Cl)cc12 [CA, (11S,15R)-7-chloro-11,15-dihydroxy-23-methoxy-13-methyl-3,13,16-triazahexacyclo[14.7.0.0^2,10.0^4,9.0^11,15.0^17,22]tricosa-1(23),2(10),4(9),5,7,17,19,21-octaene-12,14-dione]
- anti-ZIKV activity in brain organoids (NS1, dsRNA) (ZIKV): showed anti-ZIKV activity
- activity against Dengue virus 2, 3 and 4 (DENV-2, DENV-3, DENV-4): broad-spectrum anti-flaviviral activity
- EC50 [1]: 0.015 µM
- toxicity to brain organoids (brain organoids): not toxic
- CC50 at 48 h [2]: 54 ± 5 µM
- ZIKV replication inhibition (ZIKV replicon): not a ZIKV replication inhibitor
